≈ marks a conversion by molar mass, not a printed value.
Legend:
Yellow fever virus = assay: Antiviral activity against Yellow fever virus infected in human Huh-7 cells assessed as inhibition of cytopathic effect by microscopy based analysis; format: functional, organism-based
Human rhinovirus sp. [1] = assay: Antiviral activity against Human rhinovirus B14 infected in human HeLa-RH cells assessed as inhibition of cytopathic effect by microscopy based analysis; format: functional, organism-based
Escherichia coli [2] = assay: Antibacterial activity against Escherichia coli CIP 53154 assessed as reduction in bacterial growth by micro-broth dilution method; format: functional
Enterococcus faecalis [3] = assay: Bactericidal activity against Enterococcus faecalis; format: functional
Staphylococcus aureus [4] = assay: Ratio of MBC to MIC for Staphylococcus aureus CIP 54127; format: functional
[5] = Cytotoxicity against human HeLa-RH cells; format: toxicity, cell-based
Enterococcus faecalis [6] = assay: Antibacterial activity against Enterococcus faecalis assessed as reduction in bacterial growth by micro-broth dilution method; format: functional
Chikungunya virus = assay: Antiviral activity against CHIKV infected in African green monkey Vero A cells assessed as inhibition of cytopathic effect by microscopy based analysis; format: functional, organism-based
Staphylococcus aureus [7] = assay: Antibacterial activity against Staphylococcus aureus CIP 54127 assessed as reduction in bacterial growth by micro-broth dilution method; format: functional
[8] = Selectivity index, ratio of CC50 for African green monkey Vero A cells to IC50 for CHIKV infected in African green monkey Vero A cells; format: toxicity; conditions: read-out: Ratio CC50/IC50
Enterococcus faecalis [9] = assay: Ratio of MBC to MIC for Enterococcus faecalis; format: functional
Escherichia coli [10] = assay: Ratio of MBC to MIC for Escherichia coli CIP 53154; format: functional
Pseudomonas aeruginosa [11] = assay: Bactericidal activity against Pseudomonas aeruginosa CIP A22; format: functional
[12] = Cytotoxicity against human Huh-7 cells; format: toxicity, cell-based
Human rhinovirus sp. [13] = assay: Antiviral activity against Human rhinovirus A2 infected in human HeLa-RH cells assessed as inhibition of cytopathic effect by microscopy based analysis; format: functional, organism-based
Pseudomonas aeruginosa [14] = assay: Ratio of MBC to MIC for Pseudomonas aeruginosa CIP A22; format: functional
[15] = Cytotoxicity against African green monkey Vero E6 cells; format: toxicity, cell-based, Vero C1008; conditions: chlorocebus sabaeus
[16] = Cytotoxicity against African green monkey Vero A cells; format: toxicity, cell-based; conditions: chlorocebus sabaeus
Staphylococcus aureus [17] = assay: Bactericidal activity against Staphylococcus aureus CIP 54127; format: functional
Zika virus = assay: Antiviral activity against Zika virus infected in african green monkey Vero E6 cells assessed as inhibition of cytopathic effect by microscopy based analysis; format: functional, organism-based; conditions: Vero C1008
Escherichia coli [18] = assay: Bactericidal activity against Escherichia coli CIP 53154; format: functional
Pseudomonas aeruginosa [19] = assay: Antibacterial activity against Pseudomonas aeruginosa CIP A22 assessed as reduction in bacterial growth by micro-broth dilution method; format: functional
Enterovirus A71 = assay: Antiviral activity against human EV71 infected in human RD cells assessed as inhibition of cytopathic effect by microscopy based analysis; format: functional, organism-based; conditions: Enterovirus A
[20] = Cytotoxicity against human RD cells; format: toxicity, cell-based
[21] = Selectivity index, ratio of CC50 for human Huh-7 cells to IC50 for Yellow fever virus infected in human Huh-7 cells; format: toxicity, cell-based; conditions: read-out: Ratio CC50/IC50

SMILES | IC50 (Yellow fever virus) | IC50 (Human rhinovirus sp. [1]) | MIC (Escherichia coli [2]) | MBC (Enterococcus faecalis [3]) | Ratio (Staphylococcus aureus [4]) | CC50 [5] | MIC (Enterococcus faecalis [6]) | IC50 (Chikungunya virus) | MIC (Staphylococcus aureus [7]) | Ratio (Enterococcus faecalis [9]) | Ratio (Escherichia coli [10]) | MBC (Pseudomonas aeruginosa [11]) | CC50 [12] | IC50 (Human rhinovirus sp. [13]) | Ratio (Pseudomonas aeruginosa [14]) | CC50 [15] | CC50 [16] | MBC (Staphylococcus aureus [17]) | IC50 (Zika virus) | MBC (Escherichia coli [18]) | other results
CCOP(=O)(OCC)C(Nc1ccc(F)cc1)c1cc(Cn2cc(Cn3c(=O)cc(C)c4ccccc43)nn2)ccc1O (configuration not stated) | > 100 µM | > 100 µM | 510 µM (≈ 309 µg/mL) | 70 µM (≈ 42.4 µg/mL) | 1.96 | 83.8 µM | 70 µM (≈ 42.4 µg/mL) | 26.6 µM | 260 µM (≈ 157 µg/mL) | 1 | 2.04 | 2060 µM (≈ 1250 µg/mL) | 31.4 µM | > 3.7 µM | 1.98 | > 100 µM | 75.2 µM | 510 µM (≈ 309 µg/mL) | > 100 µM | 1040 µM (≈ 630 µg/mL) | selectivity ratio [8]: 2.83; MIC (Pseudomonas aeruginosa [19]): 2060 µM (≈ 1250 µg/mL); IC50 (Enterovirus A71): > 100 µM; CC50 [20]: 75.8 µM
CCOP(=O)(OCC)C(Nc1ccccc1Cl)c1cc(Cn2cc(Cn3c(=O)cc(C)c4cc(F)ccc43)nn2)ccc1O (configuration not stated) | 10.3 µM | > 100 µM | 2020 µM (≈ 1290 µg/mL) | 30 µM (≈ 19.2 µg/mL) | 2 | 12.5 µM | 30 µM (≈ 19.2 µg/mL) | > 100 µM | 130 µM (≈ 83.2 µg/mL) | 1 | 2 | 4030 µM (≈ 2580 µg/mL) | 31 µM | > 0.41 µM | 1 | 28.1 µM | 7 µM | 260 µM (≈ 166 µg/mL) | > 100 µM | 4030 µM (≈ 2580 µg/mL) | selectivity ratio [21]: 3.01; MIC (Pseudomonas aeruginosa [19]): 4030 µM (≈ 2580 µg/mL); IC50 (Enterovirus A71): > 100 µM; CC50 [20]: > 100 µM
CCOP(=O)(OCC)C(Nc1ccccc1Br)c1cc(Cn2cc(Cn3c(=O)cc(C)c4cc(Br)ccc43)nn2)ccc1O (configuration not stated) | 10.4 µM | > 100 µM | 420 µM (≈ 313 µg/mL) | 50 µM (≈ 37.3 µg/mL) | 2 | 18.4 µM | 50 µM (≈ 37.3 µg/mL) | 57.3 µM | 210 µM (≈ 157 µg/mL) | 1 | 2.02 | 420 µM (≈ 313 µg/mL) | 27.9 µM | > 0.41 µM | 1 | > 100 µM | 10.1 µM | 420 µM (≈ 313 µg/mL) | > 100 µM | 850 µM (≈ 634 µg/mL) | selectivity ratio [21]: 2.68; selectivity ratio [8]: 0.18; MIC (Pseudomonas aeruginosa [19]): 420 µM (≈ 313 µg/mL); IC50 (Enterovirus A71): > 100 µM; CC50 [20]: > 100 µM
CCOP(=O)(OCC)C(Nc1ccccc1)c1cc(Cn2cc(Cn3c(=O)cc(C)c4ccccc43)nn2)ccc1O (configuration not stated) | > 100 µM | > 100 µM | 270 µM (≈ 159 µg/mL) | 270 µM (≈ 159 µg/mL) | 2.02 | > 100 µM | 270 µM (≈ 159 µg/mL) | 56.9 µM | 530 µM (≈ 311 µg/mL) | 1 | 1.96 | 2130 µM (≈ 1250 µg/mL) | 51.1 µM | > 3.7 µM | 1 | > 100 µM | > 100 µM | 1070 µM (≈ 629 µg/mL) | > 100 µM | 530 µM (≈ 311 µg/mL) | selectivity ratio [8]: > 1.76; MIC (Pseudomonas aeruginosa [19]): 2130 µM (≈ 1250 µg/mL); IC50 (Enterovirus A71): > 100 µM; CC50 [20]: > 100 µM
